Legend:
Details in all cases: Preemergence
[1] = system: bedstraw; test: Test B pre/postemergence bedstraw; format: in vivo, Galium aparine
Outline: (§1)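 Test chemicals in a non-phytotoxic solvent mixture with surfactant were sprayed preemergence onto planted seeds and postemergence onto plants 2 to 18 cm tall (1- to 4-leaf stage). After twelve to sixteen days in a greenhouse, injury was visually rated against untreated controls from 0 (no effect) to 10 (complete control).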

[2] = system: blackgrass; test: Test B pre/postemergence blackgrass; format: in vivo, Alopecurus myosuroides
Outline: as §1

[3] = system: surinam grass; test: Test B pre/postemergence surinam grass; format: in vivo, Brachiaria decumbens
Outline: as §1

[4] = system: cocklebur; test: Test B pre/postemergence cocklebur; format: in vivo, Xanthium strumarium
Outline: as §1

[5] = system: corn; test: Test B pre/postemergence corn; format: in vivo, Zea mays
Outline: as §1

[6] = system: crabgrass; test: Test B pre/postemergence crabgrass; format: in vivo, Digitaria sanguinalis
Outline: as §1

[7] = system: giant foxtail; test: Test B pre/postemergence giant foxtail; format: in vivo, Setaria faberii
Outline: as §1

[8] = system: morningglory; test: Test B pre/postemergence morningglory; format: in vivo, Ipomoea hederacea
Outline: as §1

[9] = system: pigweed; test: Test B pre/postemergence pigweed; format: in vivo, Amaranthus retroflexus
Outline: as §1

[10] = system: rape; test: Test B pre/postemergence rape; format: in vivo, Brassica napus
Outline: as §1

[11] = system: soybean; test: Test B pre/postemergence soybean; format: in vivo, Glycine max
Outline: as §1

[12] = system: sugar beet; test: Test B pre/postemergence sugar beet; format: in vivo, Beta vulgaris
Outline: as §1

[13] = system: velvetleaf; test: Test B pre/postemergence velvetleaf; format: in vivo, Abutilon theophrasti
Outline: as §1

[14] = system: wheat; test: Test B pre/postemergence wheat; format: in vivo, Triticum aestivum
Outline: as §1

[15] = system: wild oat; test: Test B pre/postemergence wild oat; format: in vivo, Avena fatua
Outline: as §1

[16] = system: purple nutsedge; test: Test B pre/postemergence purple nutsedge; format: in vivo, Cyperus rotundus
Outline: as §1

[17] = Rate 125 g/ha, scale of 0 to 10 where 0 is no effect and 10 is complete control
[18] = Rate 250 g/ha, scale 0 (no effect) to 10 (complete control)
[19] = Rate 500 g/ha, scale 0 to 10 (0 no effect, 10 complete control)

COC(CCl)n1c(=O)on(C(=O)N(c2ccc(F)cc2F)C(C)C)c1=O (stereo not shown) [Compound 737]
6: Blackgrass plant response rating ([2]; Rate 62 g/ha, scale 0 to 10) | Corn plant response rating [5, 19] | Redroot pigweed plant response rating [9, 18] | Rape plant response rating [10, 19] | Sugarbeets plant response rating [12, 18] | Sugarbeets plant response rating [12, 19] | Plant response rating, Wild oats [15, 17]
4: B. signalgrass plant response rating ([3]; Rate 62 g/ha, scale of 0 to 10 where 0 is no effect and 10 is complete control) | Plant response rating, B. signalgrass [3, 17] | Velvetleaf plant response rating [13, 18]
3: Corn plant response rating [5, 18] | Morningglory plant response rating [8, 19] | Plant response rating, Redroot pigweed [9, 17]
5: Rape plant response rating [10, 18] | Plant response rating, Sugarbeets [12, 17] | Velvetleaf plant response rating [13, 19] | Wild oats plant response rating ([15]; Rate 62 g/ha, scale 0 to 10)
1: Morningglory plant response rating ([8]; Rate 62 g/ha, scale 0 to 10) | Sugarbeets plant response rating ([12]; Rate 62 g/ha, scale 0 to 10)
9: Plant response rating, Blackgrass [2, 17] | Blackgrass plant response rating [2, 18] | B. signalgrass plant response rating [3, 19] | Plant response rating, Crabgrass [6, 17] | Giant foxtail plant response rating ([7]; Rate 62 g/ha, scale 0 to 10) | Wild oats plant response rating [15, 19]
10: Blackgrass plant response rating [2, 19] | Crabgrass plant response rating [6, 18] | Crabgrass plant response rating [6, 19] | Plant response rating, Giant foxtail [7, 17] | Giant foxtail plant response rating [7, 18] | Giant foxtail plant response rating [7, 19]
2: Plant response rating, Corn [5, 17] | Plant response rating, Morningglory [8, 17] | Morningglory plant response rating [8, 18] | Redroot pigweed plant response rating ([9]; Rate 62 g/ha, scale 0 to 10) | Wheat plant response rating [14, 18] | Wheat plant response rating [14, 19]
0: Plant response rating, Bedstraw [1, 17] | Bedstraw plant response rating [1, 18] | Bedstraw plant response rating ([1]; Rate 62 g/ha, scale 0 to 10) | Bedstraw plant response rating [1, 19] | Plant response rating, Cocklebur [4, 17] | Cocklebur plant response rating [4, 18] | Cocklebur plant response rating ([4]; Rate 62 g/ha, scale 0 to 10) | Cocklebur plant response rating [4, 19] | Corn plant response rating ([5]; Rate 62 g/ha, scale 0 to 10) | Plant response rating, Rape [10, 17] | Rape plant response rating ([10]; Rate 62 g/ha, scale 0 to 10) | Plant response rating, Soybean [11, 17] | Soybean plant response rating [11, 18] | Soybean plant response rating ([11]; Rate 62 g/ha, scale 0 to 10) | Soybean plant response rating [11, 19] | Plant response rating, Velvetleaf [13, 17] | Velvetleaf plant response rating ([13]; Rate 62 g/ha, scale 0 to 10) | Plant response rating, Wheat [14, 17] | Wheat plant response rating ([14]; Rate 62 g/ha, scale 0 to 10) | Plant response rating, Nutsedge [16, 17] | Nutsedge plant response rating [16, 18] | Nutsedge plant response rating ([16]; Rate 62 g/ha, scale 0 to 10) | Nutsedge plant response rating [16, 19]
8: B. signalgrass plant response rating [3, 18] | Crabgrass plant response rating ([6]; Rate 62 g/ha, scale 0 to 10) | Redroot pigweed plant response rating [9, 19] | Wild oats plant response rating [15, 18]

— patent publication US6737383B1, “Herbicidal oxadiazolidines” (priority 1999, dated 2004)
